Laboratory results published in ChEMBL document CHEMBL4177592, “Discovery of renin inhibitors containing a simple aspartate binding moiety that imparts reduced P450 inhibition” (Bioorg Med Chem Lett, 2017).

Assays:
[1] = molecular target: T1, Renin (Homo sapiens, UniProt P00797); experiment: Inhibition of trypsin-activated recombinant human Fc-tagged renin expressed in BacMam virus infected HEK-F cells using Arg-Glu-Lys(5-Fam)-Ile-His-Pro-Phe-His-Leu-Val-IleHis-Thr-Lys(5,6 Tamra)-Arg-CONH2 as substrate measured after 2 hrs
T1 sequence (P00797 whole entry): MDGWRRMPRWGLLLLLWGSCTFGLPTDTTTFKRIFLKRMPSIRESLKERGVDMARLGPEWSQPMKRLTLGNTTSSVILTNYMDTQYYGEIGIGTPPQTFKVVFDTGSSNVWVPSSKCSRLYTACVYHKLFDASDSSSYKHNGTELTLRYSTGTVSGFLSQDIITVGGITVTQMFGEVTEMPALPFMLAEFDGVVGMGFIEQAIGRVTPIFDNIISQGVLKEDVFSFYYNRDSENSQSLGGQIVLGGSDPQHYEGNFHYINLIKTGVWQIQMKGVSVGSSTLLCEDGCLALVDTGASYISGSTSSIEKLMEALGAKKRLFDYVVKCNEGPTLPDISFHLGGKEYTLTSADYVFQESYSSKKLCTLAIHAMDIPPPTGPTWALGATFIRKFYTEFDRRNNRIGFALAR

[2] = molecular target: T1, Renin; experiment: Inhibition of renin in human plasma using angiotensinogen as substrate measured for 90 mins by [125I]-angiotensin based radioimmunoassay
[3] = molecular target: Cytochrome P450 3A4 (Homo sapiens, UniProt P08684); experiment: Inhibition of human CYP3A4 expressed in Escherichia coli co-expressing CYP-reductase using diethoxyfluorescein as substrate measured after 10 mins by fluorescence assay
Chain of Cytochrome P450 3A4 (P08684 whole entry): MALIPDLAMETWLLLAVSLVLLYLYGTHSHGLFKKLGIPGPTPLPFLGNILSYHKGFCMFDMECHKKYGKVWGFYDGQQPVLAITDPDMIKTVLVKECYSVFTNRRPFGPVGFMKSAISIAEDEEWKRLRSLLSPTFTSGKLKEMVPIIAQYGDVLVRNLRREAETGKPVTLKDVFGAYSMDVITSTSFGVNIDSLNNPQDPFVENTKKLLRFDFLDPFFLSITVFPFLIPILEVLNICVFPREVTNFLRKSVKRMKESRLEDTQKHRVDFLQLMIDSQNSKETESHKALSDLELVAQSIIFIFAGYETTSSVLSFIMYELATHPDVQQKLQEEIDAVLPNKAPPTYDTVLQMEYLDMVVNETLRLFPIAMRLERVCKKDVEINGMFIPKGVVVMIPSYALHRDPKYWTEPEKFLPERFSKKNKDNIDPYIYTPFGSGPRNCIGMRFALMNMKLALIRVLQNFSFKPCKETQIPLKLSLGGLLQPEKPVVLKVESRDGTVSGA

IC50 [1]	IC50 [2]	IC50 [3]	SMILES
2 nM	120 nM		CCc1cccc(-c2c(F)cccc2C(O)(CCCNC(=O)OC)[C@@H]2CCCN(C(=O)CCCCN)C2)c1 (some centres undefined)
2 nM	36 nM	440 nM	CCc1cccc(-c2c(F)cccc2C(O)(CCCNC(=O)OC)[C@@H]2CCCN(C(=O)CC(O)CN)C2)c1 (some centres undefined)
6.3 nM	180 nM		CCc1cccc(-c2c(F)cccc2C(O)(CCCNC(=O)OC)[C@@H]2CCCN(C(=O)CC[C@@H](N)CO)C2)c1 (some centres undefined)
1.3 nM			CCc1cccc(-c2c(F)cccc2C(O)(CCCNC(=O)OC)[C@@H]2CCCN(C(=O)C[C@H](O)CN)C2)c1 (some centres undefined)
25 nM	540 nM		CCc1cccc(-c2c(F)cccc2C(O)(CCCNC(=O)OC)[C@@H]2CCCN(C(=O)CC[C@H](N)C(=O)OC)C2)c1 (some centres undefined)
1 nM	13 nM	240 nM	CCc1cccc(-c2c(F)cccc2C(O)(CCCNC(=O)OC)[C@@H]2CCCN(C(=O)CCCN)C2)c1 (some centres undefined)
63 nM	3800 nM		CCc1cccc(-c2c(F)cccc2C(O)(CCCNC(=O)OC)[C@@H]2CCCN(C(=O)CN)C2)c1 (some centres undefined)
630 nM			CCc1cccc(-c2c(F)cccc2C(O)(CCCNC(=O)OC)[C@@H]2CCCN(C(=O)CC[C@H](N)C(N)=O)C2)c1 (some centres undefined)
3.2 nM	100 nM		CCc1cccc(-c2c(F)cccc2C(O)(CCCNC(=O)OC)[C@@H]2CCCN(C(=O)CCCCCN)C2)c1 (some centres undefined)
100 nM			CCc1cccc(-c2c(F)cccc2C(O)(CCCNC(=O)OC)[C@@H]2CCCN(C(=O)CCN)C2)c1 (some centres undefined)
320 nM			CCc1cccc(-c2c(F)cccc2C(O)(CCCNC(=O)OC)[C@@H]2CCCN(C(=O)CC[C@H](N)C(=O)O)C2)c1 (some centres undefined)
20 nM	460 nM		CCc1cccc(-c2c(F)cccc2C(O)(CCCNC(=O)OC)[C@@H]2CCCN(C(=O)CC[C@H](N)CO)C2)c1 (some centres undefined)
40 nM	840 nM		CCc1cccc(-c2c(F)cccc2C(O)(CCCNC(=O)OC)[C@@H]2CCCN(C(=O)[C@@H](O)CCN)C2)c1 (some centres undefined)

The next lines start with the compound.

SMILES	IC50 [1]	IC50 [2]	IC50 [3]
CCc1cccc(-c2c(Cl)cccc2C(O)(CCCNC(=O)OC)[C@@H]2CCCN(C(=O)[C@@H]3CC[C@H](N)C3)C2)c1 (some centres undefined)	3.1 nM	8.4 nM	34 nM
CCc1cccc(-c2c(Cl)cccc2C(O)(CCCNC(=O)OC)[C@@H]2CCCN(C(=O)CCCNC)C2)c1 (some centres undefined)	1 nM	16 nM	140 nM
CCc1cccc(-c2c(F)cccc2C(O)(CCCNC(=O)OC)[C@@H]2CCCN(C(=O)C3CCCCN3)C2)c1 (some centres undefined)	2000 nM		
CCc1cccc(-c2c(F)cccc2C(O)(CCCNC(=O)OC)[C@@H]2CCCN(C(=O)[C@@H]3CC[C@H](N)C3)C2)c1 (some centres undefined)	0.6 nM	3.3 nM	90 nM
CCc1cccc(-c2c(Cl)cccc2C(O)(CCCNC(=O)OC)[C@@H]2CCCN(C(=O)[C@@H]3CC[C@H](NC)C3)C2)c1 (some centres undefined)	0.6 nM	4.3 nM	49 nM
CCc1cccc(-c2c(F)cccc2C(O)(CCCNC(=O)OC)[C@@H]2CCCN(C(=O)CC3CCCNC3)C2)c1 (some centres undefined)	2 nM	40 nM	
CCc1cccc(-c2c(F)cccc2C(O)(CCCNC(=O)OC)[C@@H]2CCCN(C(=O)C3CNCCO3)C2)c1 (some centres undefined)	1000 nM		
CCc1cccc(-c2c(F)cccc2C(O)(CCCNC(=O)OC)[C@@H]2CCCN(C(=O)CCCNCCO)C2)c1 (some centres undefined)	2.5 nM	63 nM	
CCc1cccc(-c2c(F)cccc2C(O)(CCCNC(=O)OC)[C@@H]2CCCN(C(=O)C3CCNC3)C2)c1 (some centres undefined)	25 nM	540 nM	
CCc1cccc(-c2c(F)cccc2C(O)(CCCNC(=O)OC)[C@@H]2CCCN(C(=O)C3CCCNC3)C2)c1 (some centres undefined)	320 nM		
CCc1cccc(-c2c(F)cccc2C(O)(CCCNC(=O)OC)[C@@H]2CCCN(C(=O)CC3CCNCC3)C2)c1 (some centres undefined)	1.6 nM	23 nM	
CCc1cccc(-c2c(Cl)cccc2C(O)(CCCNC(=O)OC)[C@@H]2CCCN(C(=O)[C@H]3C[C@@H](N)[C@@H](O)C3)C2)c1 (some centres undefined)	0.3 nM	1.8 nM	250 nM
CCc1cccc(-c2c(F)cccc2C(O)(CCCNC(=O)OC)[C@@H]2CCCN(C(=O)CC3CCCN3)C2)c1 (some centres undefined)	800 nM		
CCc1cccc(-c2c(F)cccc2C(O)(CCCNC(=O)OC)[C@@H]2CCCN(C(=O)C3CCNCC3)C2)c1 (some centres undefined)	6.3 nM	102 nM	
CCc1cccc(-c2c(F)cccc2C(O)(CCCNC(=O)OC)[C@@H]2CCCN(C(=O)CC[C@H](N)C(=O)OCc3ccccc3)C2)c1 (some centres undefined)	16 nM	450 nM	
CCc1cccc(-c2c(F)cccc2C(O)(CCCNC(=O)OC)[C@@H]2CCCN(C(=O)CC(CNC)OC)C2)c1 (some centres undefined)	5 nM	50 nM	
CCc1cccc(-c2c(F)cccc2C(O)(CCCNC(=O)OC)[C@@H]2CCCN(C(=O)CC(O)CNC)C2)c1 (some centres undefined)	2 nM	29 nM	840 nM
CCc1cccc(-c2c(F)cccc2C(O)(CCCNC(=O)OC)[C@@H]2CCCN(C(=O)CCC3CCNCC3)C2)c1 (some centres undefined)	80 nM		
CCc1cccc(-c2c(F)cccc2C(O)(CCCNC(=O)OC)[C@@H]2CCCN(C(=O)CCC3CCCCN3)C2)c1 (some centres undefined)	126 nM		
CCc1cccc(-c2c(F)cccc2C(O)(CCCNC(=O)OC)[C@@H]2CCCN(C(=O)CCCN(C)C)C2)c1 (some centres undefined)	630 nM		
CCc1cccc(-c2c(F)cccc2C(O)(CCCNC(=O)OC)[C@@H]2CCCN(C(=O)NCCNC)C2)c1 (some centres undefined)	6.3 nM	120 nM	
CCc1cccc(-c2c(F)cccc2C(O)(CCCNC(=O)OC)[C@@H]2CCCN(C(=O)CC3CNCCO3)C2)c1 (some centres undefined)	1.6 nM	24 nM	
CCc1cccc(-c2c(F)cccc2C(O)(CCCNC(=O)OC)[C@@H]2CCCN(C(=O)NCCN)C2)c1 (some centres undefined)	3.2 nM	150 nM	
